Experimental data as given in patent publication US10239870B2, “Dopamine D3 receptor antagonists” (priority 2014, dated 2019).

Molecular target: hD2 recombinant receptor (human dopamine receptor type 2, long variant, CHO-Gα16-hD2L membranes) (Homo sapiens (Human), UniProt P14416)
Conditions: displacement of 0.08 nM [3H]-Spiperone

Row | SMILES | D2 pKi
1 | Cc1ncoc1-c1nnc(SCCCN2CC[C@]3(CC3c3ccc(C(F)(F)F)nc3)C2)n1C (stereo partly drawn) [Example 61, (1R,3S/1S,3R)-5-(3-{[4-methyl-5-(4-methyl-1,3-oxazol-5-yl)-4H-1,2,4-triazol-3-yl]sulfanyl}propyl)-1-[6-(trifluoromethyl)pyridin-3-yl]-5-azaspiro[2.4]heptane] | 5.63
2 | CC(=O)N1CCC(c2nnc(SCCCN3CC[C@]4(C[C@@H]4c4ccc(C(F)(F)F)cc4F)C3)n2C)CC1 [Example 101, 1-{4-[5-({3-[(1S,3S/1R,3R)-1-[2-fluoro-4-(trifluoromethyl)phenyl]-5-azaspiro[2.4]heptan-5-yl]propyl}sulfanyl)-4-methyl-4H-1,2,4-triazol-3-yl]piperidin-1-yl}ethan-1-one] | 5.99
3 | CC(=O)N1CCC(c2nnc(SCCCN3CC[C@]4(C[C@@H]4c4ccc(C(F)(F)F)cc4F)C3)n2C)CC1.Cl [Example 102, 1-{4-[5-({3-[(1S,3S)-1-[2-fluoro-4-(trifluoromethyl)phenyl]-5-azaspiro[2.4]heptan-5-yl]propyl}sulfanyl)-4-methyl-4H-1,2,4-triazol-3-yl]piperidin-1-yl}ethan-1-one hydrochloride] | 6.00
4 | COCCC(=O)N1CCC(c2nnc(SCCCN3CC[C@]4(C[C@@H]4c4ccc(C(F)(F)F)cc4)C3)n2C)CC1.Cl [Example 104, 3-methoxy-1-{4-[4-methyl-5-({3-[(1R,3S)-1-[4-(trifluoromethyl)phenyl]-5-azaspiro[2.4]heptan-5-yl]propyl}sulfanyl)-4H-1,2,4-triazol-3-yl]piperidin-1-yl}propan-1-one hydrochloride] | 5.80
5 | Cl.Cn1c(SCCCN2CC[C@]3(C[C@@H]3c3ccc(C(F)(F)F)cc3)C2)nnc1C1CCN(C(=O)C2CC2)CC1 [Example 106, (1R,3S)-5-(3-{[5-(1-cyclopropanecarbonylpiperidin-4-yl)-4-methyl-4H-1,2,4-triazol-3-yl]sulfanyl}propyl)-1-[4-(trifluoromethyl)phenyl]-5-azaspiro[2.4]heptane hydrochloride] | 6.05
6 | CC(=O)N1CC(c2nnc(SCCCN3CC[C@]4(C[C@@H]4c4ccc(C(F)(F)F)cc4)C3)n2C)C1 [Example 107, 1-{3-[4-methyl-5-({3-[(1R,3S/1S,3R)-1-[4-(trifluoromethyl)phenyl]-5-azaspiro[2.4]heptan-5-yl]propyl}sulfanyl)-4H-1,2,4-triazol-3-yl]azetidin-1-yl}ethan-1-one] | 5.56
7 | Cn1c(SCCCN2CC[C@]3(CC3c3ccc(C(F)(F)F)cc3)C2)nnc1C1CCC(N)CC1 (stereo partly drawn) [Example 108, 4-[4-methyl-5-({3-[(1R,3S/1S,3R)-1-[4-(trifluoromethyl)phenyl]-5-azaspiro[2.4]heptan-5-yl]propyl}sulfanyl)-4H-1,2,4-triazol-3-yl]cyclohexan-1-amine] | 6.72
8 | Cl.Cn1c(SCCCN2CC[C@]3(C[C@@H]3c3ccc(C(F)(F)F)cc3)C2)nnc1C1CCC(=O)NC1 (stereo partly drawn) [Example 121, 5-[4-methyl-5-({3-[(1R,3S)-1-[4-(trifluoromethyl)phenyl]-5-azaspiro[2.4]heptan-5-yl]propyl}sulfanyl)-4H-1,2,4-triazol-3-yl]piperidin-2-one hydrochloride] | 5.92
9 | Cn1c(SCCCN2CC[C@]3(CC3c3ccc(C(F)(F)F)cc3)C2)nnc1-c1ccc[nH]c1=O (stereo partly drawn) [Example 124, 3-[4-methyl-5-({3-[(1R,3S/1S,3R)-1-[4-(trifluoromethyl)phenyl]-5-azaspiro[2.4]heptan-5-yl]propyl}sulfanyl)-4H-1,2,4-triazol-3-yl]-1,2-dihydropyridin-2-one] | 5.32
10 | Cl.Cn1c(SCCCN2CC[C@]3(C[C@@H]3c3ccc(C(F)(F)F)cc3)C2)nnc1-c1ccc[nH]c1=O [Example 125, 3-[4-methyl-5-({3-[(1R,3S)-1-[4-(trifluoromethyl)phenyl]-5-azaspiro[2.4]heptan-5-yl]propyl}sulfanyl)-4H-1,2,4-triazol-3-yl]-1,2-dihydropyridin-2-one hydrochloride] | 5.48
11 | Cc1ncccc1-c1nnc(SCCCN2CC[C@]3(CC3c3ccccc3C(F)(F)F)C2)n1C.Cl.Cl (stereo partly drawn) [Example 168, (1S,3S/1R,3R)-5-(3-{[4-methyl-5-(2-methylpyridin-3-yl)-4H-1,2,4-triazol-3-yl]sulfanyl}propyl)-1-[2-(trifluoromethyl)phenyl]-5-azaspiro[2.4]heptane dihydrochloride] | 6.44
12 | Cc1ccc(-c2nnc(SCCCN3CC[C@]4(CC4c4ccc(C(F)(F)F)cc4)C3)n2C)cn1 (stereo partly drawn) [Example 169, (1R,3S/1S,3R)-5-(3-{[4-methyl-5-(6-methylpyridin-3-yl)-4H-1,2,4-triazol-3-yl]sulfanyl}propyl)-1-[4-(trifluoromethyl)phenyl]-5-azaspiro[2.4]heptane] | 6.01
13 | Cn1c(SCCCN2CC[C@]3(CC3c3ccc(C(F)(F)F)cc3)C2)nnc1-c1cccnc1F (stereo partly drawn) [Example 173, (1R,3S/1S,3R)-5-(3-{[5-(2-fluoropyridin-3-yl)-4-methyl-4H-1,2,4-triazol-3-yl]sulfanyl}propyl)-1-[4-(trifluoromethyl)phenyl]-5-azaspiro[2.4]heptane] | 5.75
14 | CNC(=O)c1cccc(-c2nnc(SCCCN3CC[C@]4(C[C@@H]4c4ccc(C(F)(F)F)cc4)C3)n2C)n1.Cl [Example 195, N-methyl-6-[4-methyl-5-({3-[(1R,3S)-1-[4-(trifluoromethyl)phenyl]-5-azaspiro[2.4]heptan-5-yl]propyl}sulfanyl)-4H-1,2,4-triazol-3-yl]pyridine-2-carboxamide hydrochloride] | 5.84
15 | CN(C)C(=O)c1cccc(-c2nnc(SCCCN3CC[C@]4(C[C@@H]4c4ccc(C(F)(F)F)cc4)C3)n2C)n1.Cl [Example 197, N,N-dimethyl-6-[4-methyl-5-({3-[(1R,3S)-1-[4-(trifluoromethyl)phenyl]-5-azaspiro[2.4]heptan-5-yl]propyl}sulfanyl)-4H-1,2,4-triazol-3-yl]pyridine-2-carboxamide hydrochloride] | 5.66
16 | Cc1ccc(C(N)=O)nc1-c1nnc(SCCCN2CC[C@]3(C[C@@H]3c3ccc(C(F)(F)F)cc3)C2)n1C.Cl [Example 199, 5-methyl-6-[4-methyl-5-({3-[(1R,3S)-1-[4-(trifluoromethyl)phenyl]-5-azaspiro[2.4]heptan-5-yl]propyl}sulfanyl)-4H-1,2,4-triazol-3-yl]pyridine-2-carboxamide hydrochloride] | 5.81
17 | Cc1cncc(-c2nnc(SCCCN3CC[C@]4(CC4c4ccc(C(F)(F)F)cc4)C3)n2C)n1 (stereo partly drawn) [Example 222, (1R,3S/1S,3R)-5-(3-{[4-methyl-5-(6-methylpyrazin-2-yl)-4H-1,2,4-triazol-3-yl]sulfanyl}propyl)-1-[4-(trifluoromethyl)phenyl]-5-azaspiro[2.4]heptane] | 5.91

Other lines, results leading:

Row | D2 pKi | SMILES
18 | 6.34 | Cn1c(SCCCN2CC[C@]3(CC3c3ccc(C(F)(F)F)cc3)C2)nnc1-c1cccc(=O)[nH]1 (stereo partly drawn) [Example 122, 6-[4-methyl-5-({3-[(1R,3S/1S,3R)-1-[4-(trifluoromethyl)phenyl]-5-azaspiro[2.4]heptan-5-yl]propyl}sulfanyl)-4H-1,2,4-triazol-3-yl]-1,2-dihydropyridin-2-one]
19 | 6.00 | Cn1c(SCCCN2CC[C@]3(CC3c3ccc(C(F)(F)F)cc3F)C2)nnc1-c1cccc(=O)[nH]1 (stereo partly drawn) [Example 123, 6-[5-({3-[(1R,3S/1S,3R)-1-[2-fluoro-4-(trifluoromethyl)phenyl]-5-azaspiro[2.4]heptan-5-yl]propyl}sulfanyl)-4-methyl-4H-1,2,4-triazol-3-yl]-1,2-dihydropyridin-2-one]
20 | 6.35 | Cn1c(SCCCN2CC[C@]3(CC3c3ccc(C(F)(F)F)cc3F)C2)nnc1-c1ccc(=O)[nH]c1 (stereo partly drawn) [Example 129, 5-[5-({3-[(1S,3S/1R,3R)-1-[2-fluoro-4-(trifluoromethyl)phenyl]-5-azaspiro[2.4]heptan-5-yl]propyl}sulfanyl)-4-methyl-4H-1,2,4-triazol-3-yl]-1,2-dihydropyridin-2-one]
21 | 6.16 | Cn1c(SCCCN2CC[C@]3(CC3c3ccc(F)cc3F)C2)nnc1-c1ccc(=O)[nH]c1 (stereo partly drawn) [Example 130, 5-[5-({3-[(1S,3S/1R,3R)-1-(2,4-difluorophenyl)-5-azaspiro[2.4]heptan-5-yl]propyl}sulfanyl)-4-methyl-4H-1,2,4-triazol-3-yl]-1,2-dihydropyridin-2-one]
22 | 6.16 | Cn1c(SCCCN2CC[C@]3(CC3c3ccc(F)cc3)C2)nnc1-c1ccc(=O)[nH]c1 (stereo partly drawn) [Example 131, 5-[5-({3-[(1R,3S/1S,3R)-1-(4-fluorophenyl)-5-azaspiro[2.4]heptan-5-yl]propyl}sulfanyl)-4-methyl-4H-1,2,4-triazol-3-yl]-1,2-dihydropyridin-2-one]
23 | 6.87 | Cn1c(SCCCN2CC[C@]3(CC3c3ccccc3C(F)(F)F)C2)nnc1-c1ccc(=O)[nH]c1 (stereo partly drawn) [Example 132, 5-[4-methyl-5-({3-[(1S,3S/1R,3R)-1-[2-(trifluoromethyl)phenyl]-5-azaspiro[2.4]heptan-5-yl]propyl}sulfanyl)-4H-1,2,4-triazol-3-yl]-1,2-dihydropyridin-2-one]
24 | 6.54 | Cn1c(SCCCN2CC[C@]3(CC3c3ccccc3C(F)(F)F)C2)nnc1-c1cc[nH]c(=O)c1 (stereo partly drawn) [Example 135, 4-[4-methyl-5-({3-[(1S,3S/1R,3R)-1-[2-(trifluoromethyl)phenyl]-5-azaspiro[2.4]heptan-5-yl]propyl}sulfanyl)-4H-1,2,4-triazol-3-yl]-1,2-dihydropyridin-2-one]
25 | 5.83 | Cl.Cn1c(SCCCN2CC[C@]3(C[C@@H]3c3ccc(C(F)(F)F)cc3F)C2)nnc1-c1ccn(C)c(=O)c1 [Example 139, 4-[5-({3-[(1S,3S)-1-[2-fluoro-4-(trifluoromethyl)phenyl]-5-azaspiro[2.4]heptan-5-yl]propyl}sulfanyl)-4-methyl-4H-1,2,4-triazol-3-yl]-1-methyl-1,2-dihydropyridin-2-one hydrochloride]
26 | 6.23 | Cn1c(SCCCN2CC[C@]3(C[C@H]3c3ccc(C(F)(F)F)cc3F)C2)nnc1-c1ccncc1 [Example 164, (1R,3S/1S,3R)-1-[2-fluoro-4-(trifluoromethyl)phenyl]-5-(3-{[4-methyl-5-(pyridin-4-yl)-4H-1,2,4-triazol-3-yl]sulfanyl}propyl)-5-azaspiro[2.4]heptane]
